Test [1] addresses T1, hemoglobin in stool samples (Homo sapiens, UniProt P68871+P69905). The test is described as follows: 3-Day shipping simulation, hemoglobin % recovery by ELISA.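 Further: stool samples put through shipping stress in a thermal cycler, hemoglobin quantified by ELISA before and after, stability given as post-stress % of the pre-stress level.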 More on the design: from tissue; host or cells: stool samples.
For test [2], the target named is T1, hemoglobin in stool samples. Kind of test: Accelerated shipping simulation (35C 16 hour challenge), hemoglobin % recovery by ELISA.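 Further: stool hemoglobin measured by ELISA before and after thermal-cycler shipping stress, stability given as percent of pre-stress hemoglobin recovered afterwards.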 More on the design: from tissue; host or cells: stool samples.

Counter-ions that a name gives are not always drawn.

Drawing on patent US20240402196A1 (Exact Sciences Corporation, priority 2018, published 2024), this text covers Results for 31 molecules.

T1 sequence (P69905 2-142 limits assumed): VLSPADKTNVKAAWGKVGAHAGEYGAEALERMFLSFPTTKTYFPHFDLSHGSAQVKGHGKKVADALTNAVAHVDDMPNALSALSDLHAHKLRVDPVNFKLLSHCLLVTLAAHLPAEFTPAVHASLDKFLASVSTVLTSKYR
T1 sequence (P68871 2-147 limits assumed): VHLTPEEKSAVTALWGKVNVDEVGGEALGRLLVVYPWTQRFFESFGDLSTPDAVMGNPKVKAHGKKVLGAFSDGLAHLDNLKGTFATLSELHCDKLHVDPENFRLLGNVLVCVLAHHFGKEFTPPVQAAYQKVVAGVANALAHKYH

For the molecule `O=c1cc(-c2ccccc2)oc2c(O)c(O)ccc12` [7,8 dihydroxyflavone], the Results result in test [1] (additive concentration 0.5 mM) and in test [1] (additive concentration 1 mM) was “No improvement” each time.

In the case of `O=C1O[C@H]([C@@H](O)CO)C(O)=C1O` [Ascorbic Acid], the Results entry in test [1] (additive concentration 0.5 mM) is recorded as “No improvement”; in test [1] (additive concentration 1 mM) it was “No improvement”; in test [1] (additive concentration 5 mM), “No improvement”; in test [2] (additive concentration 0.2 uM), “No Improvement”; in test [2] (additive concentration 5 uM), “No Improvement”; in test [2] (additive concentration 10 uM), “No Improvement”. Besides, the Results entry in test [2] (additive concentration 100 uM), in test [2] (additive concentration 10 mM), in test [2] (additive concentration 25 mM) and in test [2] (additive concentration l uM) was “No Improvement” in each case.

As to `O=[N+]([O-])C1(Br)COCOC1` [Bronidox], the Results result in test [1] (Additive Concentration 0.0002%), in test [1] (Additive Concentration 0.0010%) and in test [1] (Additive Concentration 0.0020%) was “No improvement” each time.

As for `CCC(=O)[O-].CCC(=O)[O-].[Ca+2]` [Calcium Propionate], the Results entry in test [1] (additive concentration 5 mM), in test [1] (additive concentration 10 mM), in test [1] (additive concentration 20 mM), in test [1] (additive concentration 30 mM), in test [1] (additive concentration 40 mM) and in test [1] (additive concentration 50 mM) was “Calcium cation shows” each time.

For the molecule `[Cl][Co][Cl]` [Cobalt Chloride], the Results result in test [1] (additive concentration 0.001M), in test [1] (additive concentration 0.01M) and in test [1] (additive concentration 0.05M) was “No Improvement” throughout.

Regarding `[Cl][Cu][Cl]` [Copper Chloride], the Results result in test [1] (additive concentration 1 mM), in test [1] (additive concentration 10 mM) and in test [1] (additive concentration 25 mM) was “No Improvement” in each case.

Take `O=c1c(-c2ccc(O)cc2)coc2cc(O)ccc12` [Diadzein]: the Results entry in test [1] (Additive Concentration 60 mM), in test [1] (additive concentration 25 uM), in test [1] (additive concentration 50 uM), in test [1] (additive concentration 100 uM), in test [1] (additive concentration 40 mM) and in test [1] (additive concentration 50 mM) was “No improvement” each time.

Take `O=C(NCO)N(CO)C1(CO)C(=O)NC(=O)N1CO` (centres unmarked) [Diazolidinyl Urea]: the Results entry in test [1] (additive concentration 10 mM), in test [1] (additive concentration 25 mM), in test [1] (additive concentration 50 mM), in test [1] (additive concentration 75 mM), in test [1] (additive concentration 100 mM) and in test [2] (additive concentration 10 uM) was “No Improvement” throughout. Besides, the Results result in test [2] (additive concentration 100 uM), in test [2] (additive concentration 1 mM) and in test [2] (additive concentration 10 mM) was “No Improvement” each time.

Turning to `C=O` [Formaldehyde Solution], the Results entry in test [1] (additive concentration 0.010%), in test [1] (additive concentration 0.020%), in test [1] (additive concentration 0.030%), in test [1] (additive concentration 0.035%), in test [1] (additive concentration 0.040%) and in test [1] (additive concentration 0.050%) was “No Improvement” in each case. In addition, the Results result in test [1] (additive concentration 0.060%), in test [1] (additive concentration 0.070%), in test [1] (additive concentration 0.080%), in test [1] (additive concentration 0.090%), in test [1] (additive concentration 0.100%) and in test [1] (additive concentration […]) was “No Improvement” in each case.

On to `O=CCCCC=O` [Glutaraldehyde Solution], for which the Results entry in test [1] (additive concentration 0.010%), in test [1] (additive concentration 0.020%), in test [1] (additive concentration 0.030%), in test [1] (additive concentration 0.035%), in test [1] (additive concentration 0.040%) and in test [1] (additive concentration 0.050%) was “No Improvement” each time. The Results result in test [1] (additive concentration 0.060%) is given as “Assay Interference”; in test [1] (additive concentration 0.070%), “Assay Interference”; in test [1] (additive concentration 0.080%), “No Improvement”; in test [1] (additive concentration 0.090%), “No Improvement”; in test [1] (additive concentration 0.100%) it was “No Improvement”.

As for `[Cl][Fe]([Cl])[Cl]` [Iron (3) Chloride], the Results entry in test [1] (additive concentration 1 mM), in test [1] (additive concentration 5 mM) and in test [1] (additive concentration 10 mM) was “No Improvement” in each case.

For `Cn1sccc1=O` [Methylisothiazolone], the Results entry in test [1] (Additive Concentration 0.0001%), in test [1] (Additive Concentration 0.0002%), in test [1] (Additive Concentration 0.0010%), in test [1] (Additive Concentration 0.0020%) and in test [1] (additive concentration 0.00005%) was “No improvement” throughout.

Take `[Cl][Ni][Cl]` [Nickel Chloride]: the Results entry in test [1] (additive concentration 1 mM), in test [1] (additive concentration 10 mM) and in test [1] (additive concentration 25 mM) was “No Improvement” each time.

On to `C=CC1=C(C)c2cc3[n-]c(cc4nc(cc5[n-]c(cc1n2)c(C)c5C=C)C(C)=C4CCC(=O)O)c(CCC(=O)O)c3C.[Cl-].[Co+3]` [Protoporphyrin IX Cobalt (Vendor 3)], for which the Results result in test [2] (additive concentration 1.25 uM) and in test [2] (additive concentration 5 uM) was “Improvement in % Hb” in each case.

With `C=CC1=C(C)c2cc3[n-]c(cc4nc(cc5[n-]c(cc1n2)c(C)c5C=C)C(C)=C4CCC(=O)O)c(CCC(=O)O)c3C.[Cl-].[Ga+3]` [Protoporphyrin IX Gallium], the Results entry in test [2] (additive concentration 1.25 uM) and in test [2] (additive concentration 5 uM) was “No Improvement” each time.

As for `OC[C@H]1O[C@H](OC[C@H]2O[C@H](O[C@]3(CO)O[C@H](CO)[C@@H](O)[C@@H]3O)[C@H](O)[C@@H](O)[C@@H]2O)[C@H](O)[C@@H](O)[C@H]1O` [Raffinose], the Results result in test [2] (additive concentration 5 uM) was “No Improvement”; in test [2] (additive concentration 50 uM), “No Improvement”; in test [2] (additive concentration 5 mM) it was “No Improvement”; in test [2] (additive concentration 24 mM), “No improvement”.

As to `Oc1ccc(C=Cc2cc(O)cc(O)c2)cc1` [Resveratrol], the Results result in test [1] (Additive Concentration 10 mM), in test [1] (additive concentration 5 mM) and in test [1] (additive concentration 20 mM) was “No improvement” in each case.

On to `[F-].[Na+]` [Sodium Fluoride], for which the Results result in test [2] (additive concentration 85 uM) and in test [2] (additive concentration 850 uM) was “No Improvement” throughout.

For the molecule `O=S([O-])([O-])=S.[Na+].[Na+]` [Sodium Thiosulfate], the Results entry in test [2] is given as “No Improvement”.

On to `O=C([O-])CNCO.[Na+]` [Soduim hyrdoxylmethyl glycinate], for which the Results entry in test [1] (additive concentration 10 mM), in test [1] (additive concentration 25 mM), in test [1] (additive concentration 50 mM), in test [1] (additive concentration 75 mM) and in test [1] (additive concentration 90 mM) was “No Improvement” throughout.

Turning to `O=C(O)CCP(CCC(=O)O)CCC(=O)O` [TCEP], the Results entry in test [2] (additive concentration 0.005 mM), in test [2] (additive concentration 0.01 mM), in test [2] (additive concentration 0.1 mM), in test [2] (additive concentration 250 uM), in test [2] (additive concentration 500 uM) and in test [2] (additive concentration 750 uM) was “No Improvement” each time. Moreover, in test [2] (additive concentration 1 mM), the Results result is on record as “No Improvement”.

In the case of `Cc1c(C)c2c(c(C)c1O)CCC(C)(CCCC(C)CCCC(C)CCCC(C)C)O2` (centres unmarked) [Tocopherol], the Results entry in test [1] (Additive Concentration 0.10%), in test [1] (Additive Concentration 1%) and in test [1] (Additive Concentration 10%) was “No improvement” in each case.

Regarding `NC(N)=O` [Urea], the Results entry in test [2] (additive concentration 25 uM), in test [2] (additive concentration 250 uM), in test [2] (additive concentration 500 uM), in test [2] (additive concentration 5 mM), in test [2] (additive concentration 50 mM) and in test [2] (additive concentration 100 mM) was “No Improvement” each time.

As to `O=c1[nH]c(=O)c2[nH]c(=O)[nH]c2[nH]1` [Uric Acid], the Results result in test [2] (additive concentration 0.6 uM), in test [2] (additive concentration 6 uM) and in test [2] (additive concentration 60 uM) was “No Improvement” throughout.

For `Cc1ncc(CO)c(CO)c1O` [Vitamine B6 in HCl], the Results result in test [1] (additive concentration 0.5 mM), in test [1] (additive concentration 1 mM) and in test [1] (additive concentration 2 mM) was “No improvement” in each case.

`[Cl-].[Cl-].[Zn+2]` [Zinc Chloride]: the Results result in test [1] (additive concentration 1 mM), in test [1] (additive concentration 10 mM) and in test [1] (additive concentration 25 mM) was “No Improvement” each time.

`N.N.N.O=C(O)C1=CC(=C(c2ccc(O)c(C(=O)O)c2)c2ccc(O)c(C(=O)O)c2)C=CC1=O` [aurintircarboxylic acid ammonium salt]: the Results result in test [1] (Additive Concentration 5%), in test [1] (Additive Concentration 10%) and in test [1] (Additive Concentration 25%) was “No improvement” in each case.

Turning to BSA (10 mM MOPS), the Results entry in test [1] (Additive Concentration 1%) is “No Improvement”.

Turning to Deferoxamine Mesylate Salt, the Results result in test [2] (additive concentration 10 uM), in test [2] (additive concentration 100 uM), in test [2] (additive concentration 1 mM) and in test [2] (additive concentration 5 mM) was “No Improvement” each time.

As to Dextran Sulphate, the Results result in test [2] (Additive Concentration 1 uM), in test [2] (additive concentration 0.2 uM), in test [2] (additive concentration 2 uM) and in test [2] (additive concentration 0.5 mM) was “No Improvement” throughout.

As to Heparin, the Results entry in test [2] (additive concentration 25 uM) and in test [2] (additive concentration 250 uM) was “No Improvement” throughout.
